According to patent US11293024B2, “Antisense antibacterial compounds and methods” (priority 2014, dated 2022):

System: existing P. aeruginosa PAO1 biofilm
Assay: Biofilm reduction in MBEC plate (crystal violet)
Format: cell-based, Pseudomonas aeruginosa
Conditions: at 10 and 5 μM; 2 μg/mL PMBN; 48 hour biofilm
Experimental: P. aeruginosa PAO1 (5×10^5 cfu/mL) was grown in an MBEC plate for 24 hours. At 24 hours, the pegs were moved to a new 96-well plate containing fresh MHII media and either scrambled, RpsJ, or AcpP PPMO at the indicated concentrations. All wells containing PPMOs (including Scrambled) contained 2 μg/mL of PMBN. The pegs were again moved to new plates with or without PPMOs at 32 and 40 hours. Pegs were processed for crystal violet or visualized with microscopy at 48 hours. […] FIGS. 7B-7D: Spinning Disk confocal microscopy images of 48 hour biofilm treated with (FIG. 7B) 10 μM Scr PPMO #42, (FIG. 7C) 2.5 μM AcpP PPMO #35, (FIG. 7D) 10 μM AcpP PPMO #35. Green channel is PAO1 GFP; Red channel is biofilm stained with 200 μg/mL of Concanavalin A, Alexafluor 647 conjugate.
Pseudomonas aeruginosa Biofilm Reduction in MBEC Plate Protocol
• 1. 10 mL of MH is inoculated with a single colony and incubated at 37° C. and ˜250 rpm for about 5 hours. • 2. The sample is centrifuged for 10 minutes at ˜4000 rpm at 4° C., the supernatant decanted and the pellet resuspended in 10 mL of 150 mM NaCl or PBS. This step is repeated to wash the pellet 3 times. • 3. […] The OD600 of the sample is taken and cfu/mL is calculated. […]
1. […] The final OD570 of the 10× dilution of solution should be approximately 0.500 absorbance. […]
2. OD reading: The OD570 for the 96-well plate from step 1e is determined. […]

PPMO #14: RpsJ PMO GCATTTGACCT, 5′ TEG, 3′ (RXR)4XB CPP
reduction of existing biofilm (crystal violet): statistically significant reduction of biofilm
